Laboratory results as given in patent publication US20210300924A1, “5-[6-[[3-(4,5,6,7-TETRAHYDROPYRAZOLO[4,3-C]PYRIDIN-1-YL)AZETIDIN-1-YL]METHYL]MORPHOLIN-4-YL]QUINOLINE-8-CARBONITRILE DERIVATIVES AND SIMILAR COMPOUNDS AS TLR7-9 ANTAGONISTS FOR TREATING SYSTEMIC LUPUS ERYTHEMATOSUS” (Hoffmann-La Roche Inc., priority 2018, published 2021).

Tests used:
TLR9 = target: T1, TLR9 (Homo sapiens, UniProt Q9NR96); assay: Human PBMC cell-based assay; set-up: endogenous in cells; host or cells: human PBMC from healthy donor whole blood; settings: CpG ODN 2216 stimulation, overnight, cytokine readout, read-out: hPBMC/TLR9 IC50
T1 sequence (Q9NR96 26-1032): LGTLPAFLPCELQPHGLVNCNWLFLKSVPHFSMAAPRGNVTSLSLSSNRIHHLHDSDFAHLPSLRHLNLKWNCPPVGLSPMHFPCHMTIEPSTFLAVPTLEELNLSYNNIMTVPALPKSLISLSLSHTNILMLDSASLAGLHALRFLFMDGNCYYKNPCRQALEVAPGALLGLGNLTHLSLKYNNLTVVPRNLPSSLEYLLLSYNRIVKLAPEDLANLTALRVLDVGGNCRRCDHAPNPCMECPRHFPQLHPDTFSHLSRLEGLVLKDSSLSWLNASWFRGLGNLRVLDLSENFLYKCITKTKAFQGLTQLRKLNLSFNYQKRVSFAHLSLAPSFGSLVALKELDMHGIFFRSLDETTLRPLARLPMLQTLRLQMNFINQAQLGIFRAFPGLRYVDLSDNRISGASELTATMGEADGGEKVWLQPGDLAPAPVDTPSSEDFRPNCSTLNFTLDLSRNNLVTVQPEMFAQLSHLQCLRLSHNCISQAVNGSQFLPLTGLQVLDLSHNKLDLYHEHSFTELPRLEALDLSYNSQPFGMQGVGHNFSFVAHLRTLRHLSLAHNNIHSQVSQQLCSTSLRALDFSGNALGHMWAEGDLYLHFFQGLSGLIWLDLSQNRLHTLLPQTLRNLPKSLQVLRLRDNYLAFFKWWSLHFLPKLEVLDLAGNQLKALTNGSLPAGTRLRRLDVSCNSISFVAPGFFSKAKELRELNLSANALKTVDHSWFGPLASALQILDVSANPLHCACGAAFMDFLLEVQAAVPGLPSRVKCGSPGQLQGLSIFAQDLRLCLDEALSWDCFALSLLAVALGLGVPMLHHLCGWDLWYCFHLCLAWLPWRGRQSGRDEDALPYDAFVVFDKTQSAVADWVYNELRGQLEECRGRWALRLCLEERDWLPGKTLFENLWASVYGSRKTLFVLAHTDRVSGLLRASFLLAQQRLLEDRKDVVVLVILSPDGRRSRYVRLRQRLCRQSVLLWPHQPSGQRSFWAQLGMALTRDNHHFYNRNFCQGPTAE
Excerpt: Human PBMC Cell-Based Assay
Unlike the HEK reporter cell lines, human peripheral blood mononuclear cell (PBMC) represents primary human immune cells in blood mainly consisting of lymphocytes, monocytes, and dendritic cells. These cells express TLR7, TLR8, or TLR9, and therefore are natural responders to respective ligand stimulation. Upon activation of these TLRs, PBMCs secrete similar cytokines and chemokines in vitro and in vivo, and therefore the in vitro potency of a TLR7/8/9 antagonist in human PBMC is readily translatable to its pharmacodynamics response in vivo.
Human peripheral blood mononuclear cells (PBMC) were isolated from freshly-drawn lithium-heparinized (Lithium Heparin Plus blood Collection tube, BD Vacutainer®) healthy donor whole blood by density gradient (Ficoll-Paque™ PLUS, GE Healthcare life Sciences). Briefly, […] was diluted with 25 mL PBS (without Ca^2+, Mg^2+) in a 50 mL conical tube with porous barrier (Leucosep tube, Greiner bio-one), where 15.5 mL Ficoll-Paque was under laid after spinning. Tubes were centrifuged for 20 minutes at 800×g (1946 rpm) with the brake in the off position, and PBMC were collected from the buffy coat. Cells were then washed twice in PBS, and red blood cells were lysed by suspension in 2 mL (Red Blood Cell Lysis Buffer, Alfa Aesar) for 5-10 minutes at room temperature. After a final wash in PBS, PBMC were resuspended at a final concentration of 2×10^6 cells/mL in RPMI-1640 media with GlutaMAX™ (Gibco) supplemented with 10% Fetal Bovine Serum (Sigma) and plated at 150 μL/well (3×10^5 cells/well) in tissue culture treated round bottom 96-well plates (Corning Incorporated). Antagonist compounds (compounds of this invention) solubilized and serial diluted in 100% DMSO were added in duplicate to cells to yield a final concentration of 1% DMSO (v/v). PBMC were incubated with antagonist compounds for 30 minutes at 37° C., 5% CO2 before adding various TLR agonist reagents in 48 μL complete media per well as follows (final concentrations indicated): CpG ODN 2216 (InvivoGen) at […] for TLR9, ORN 06/LyoVec (InvivoGen) at 1 μg/mL for TLR8 and R848 (InvivoGen) at 1 μg/mL for TLR7 and TLR8. PBMC were incubated overnight at 37° C. with 5% CO2. Cell culture supernatants were collected, and levels of various human cytokines were assessed by Luminex assay (ProcartaPlex™ Multiplex Immunoassay, Invitrogen) or ELISA procedure according to the manufacturer's recommended protocol (eBioscience, ThermoFisher Scientific). Viability of the cells was also checked with Cell Viability Assay (CellTiter Glo® Luminescent Cell Viability Assay, Promega).

hERG channel = target: T2, hERG channel (Homo sapiens, UniProt Q12809); assay: hERG channel inhibition assay (patch-clamp, CHOhERG cells); format: cell-based; settings: for IC50 / IC20: CHOhERG cells, whole-cell patch-clamp; for IC20: human, CHO cells stably expressing hERG (CHOhERG cells); for hERG IC20/TLR7 IC50 / hERG IC20/TLR8 IC50 / hERG IC20/TLR9 IC50: safety ratio, >30 suggests sufficient window
T2 construct: expressed in transfected cells; host or cells: CHO (Chinese hamster ovary), CHOhERG
Procedure: hERG Channel Inhibition Assay:
The hERG K^+ channels were cloned in humans and stably expressed in a CHO (Chinese hamster ovary) cell line. CHOhERG cells were used for patch-clamp (voltage-clamp, whole-cell) experiments. Cells were stimulated by a voltage pattern to activate hERG channels and conduct hERG currents (rapid delayed outward rectifier potassium current of the hERG channel). After the cells were stabilized for a few minutes, the amplitude and kinetics of IKhERG were recorded at a stimulation frequency of 0.1 Hz (6 bpm). Thereafter, the test compound was added to the preparation at increasing concentrations. For each concentration, an attempt was made to reach a steady-state effect, usually, this was achieved within 3-10 min at which time the next highest concentration was applied. The amplitude and kinetics of IKhERG are recorded in each concentration of the drug which were compared to the control values (taken as 100%). (references: Redfern W S, Carlsson L, Davis A S, Lynch W G, MacKenzie I, Palethorpe S, Siegl P K, Strang I, Sullivan A T, Wallis R, Camm A J, Hammond T G. 2003; Relationships between preclinical cardiac electrophysiology, clinical QT interval prolongation and torsade de pointes for a broad range of drugs: evidence for a provisional safety margin in drug development. Cardiovasc. Res. 58:32-45, Sanguinetti MC, Tristani-Firouzi M. 2006; hERG potassium channels and cardiac arrhythmia. Nature 440:463-469, Webster R, Leishman D, Walker D. 2002; Towards a drug concentration effect relationship for QT prolongation and torsades de pointes. Curr. Opin. Drug Discov. Devel. 5:116-26).

T2 sequence (Q12809 whole entry): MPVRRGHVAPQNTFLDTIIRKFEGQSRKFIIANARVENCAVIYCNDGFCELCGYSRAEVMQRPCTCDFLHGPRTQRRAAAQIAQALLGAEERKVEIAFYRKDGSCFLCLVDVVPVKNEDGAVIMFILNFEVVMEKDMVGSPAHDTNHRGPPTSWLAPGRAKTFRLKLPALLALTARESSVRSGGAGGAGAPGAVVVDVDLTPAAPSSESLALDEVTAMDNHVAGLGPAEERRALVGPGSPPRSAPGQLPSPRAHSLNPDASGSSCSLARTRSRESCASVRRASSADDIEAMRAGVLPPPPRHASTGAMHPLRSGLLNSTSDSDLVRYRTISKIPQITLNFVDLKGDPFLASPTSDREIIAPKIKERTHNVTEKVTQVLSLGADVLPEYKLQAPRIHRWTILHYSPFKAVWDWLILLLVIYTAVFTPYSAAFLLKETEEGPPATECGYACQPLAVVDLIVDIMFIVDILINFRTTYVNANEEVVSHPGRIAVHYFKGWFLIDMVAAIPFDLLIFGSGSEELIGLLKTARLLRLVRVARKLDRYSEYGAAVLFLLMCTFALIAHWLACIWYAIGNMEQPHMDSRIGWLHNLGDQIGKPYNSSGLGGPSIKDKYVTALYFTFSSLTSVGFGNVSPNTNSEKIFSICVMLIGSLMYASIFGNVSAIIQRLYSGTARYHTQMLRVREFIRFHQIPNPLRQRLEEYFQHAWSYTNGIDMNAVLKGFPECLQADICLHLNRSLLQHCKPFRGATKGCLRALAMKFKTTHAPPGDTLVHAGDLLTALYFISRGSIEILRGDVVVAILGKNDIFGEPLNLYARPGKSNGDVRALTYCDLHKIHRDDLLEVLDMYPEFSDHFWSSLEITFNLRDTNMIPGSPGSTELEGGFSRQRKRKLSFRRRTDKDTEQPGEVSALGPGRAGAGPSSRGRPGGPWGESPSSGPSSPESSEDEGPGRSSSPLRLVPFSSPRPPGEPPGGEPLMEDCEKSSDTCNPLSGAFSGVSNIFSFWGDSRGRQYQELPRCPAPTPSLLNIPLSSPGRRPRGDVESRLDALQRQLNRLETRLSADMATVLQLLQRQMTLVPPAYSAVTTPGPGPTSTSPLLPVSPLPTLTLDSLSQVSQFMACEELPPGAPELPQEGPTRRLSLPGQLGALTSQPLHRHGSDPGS

Structure (SMILES)	IC50 (TLR9) [nM]	IC50 (hERG channel) [µM]	IC20 (hERG channel) [µM]	hERG IC20/TLR7 IC50 (hERG channel)	hERG IC20/TLR8 IC50 (hERG channel)	hERG IC20/TLR9 IC50 (hERG channel)
C[C@@H]1CN(c2ccc(C#N)c3ncccc23)C[C@H](CN2CC(n3ncc4c3CN[C@@H](C)C4)C2)O1 (single isomer, unassigned) [Example 27]	81	–	–	–	–	–
C[C@@H]1Cc2cnn(C3CN(C[C@H]4CN(c5ccc(C#N)c6ncccc56)C[C@@H](C)O4)C3)c2CN1 (single isomer, unassigned) [Example 28]	214	–	–	–	–	–
C[C@@H]1CN(c2ccc(C#N)c3ncccc23)C[C@H](CN2CC(n3ncc4c3CCNC4)C2)O1 [Example 1, 5-[(2R,6S)-2-methyl-6-[[3-(4,5,6,7-tetrahydropyrazolo[4,3-c]pyridin-1-yl)azetidin-1-yl]methyl]morpholin-4-yl]quinoline-8-carbonitrile]	–	> 20	> 10	>1023.8	>584.4	>174.0
C[C@@H]1CN(c2ccc(C#N)c3ncccc23)C[C@H](CN2CC(n3cc4c(n3)CCNC4)C2)O1 [Example 2, 5-[(2R,6S)-2-methyl-6-[[3-(4,5,6,7-tetrahydropyrazolo[4,3-c]pyridin-2-yl)azetidin-1-yl]methyl]morpholin-4-yl]quinoline-8-carbonitrile]	–	> 20	> 10	>403.5	>538.4	>151.6
C[C@@H]1CN(c2ccc(C#N)c3ncccc23)C[C@H](CN2CC(n3cc4c(n3)CNC4)C2)O1 [Example 11, 5-[(2S,6R)-2-[[3-(5,6-dihydro-4H-pyrrolo[3,4-c]pyrazol-2-yl)azetidin-1-yl]methyl]-6-methyl-morpholin-4-yl]quinoline-8-carbonitrile]	–	> 20	> 10	>602.4	>531.9	>204.5
C[C@@H]1CN(c2ccc(C#N)c3ncccc23)C[C@H](CN2CCC(n3ncc4c3CCNC4)CC2)O1 [Example 35, 5-[(2R,6S)-2-methyl-6-[[4-(4,5,6,7-tetrahydropyrazolo[4,3-c]pyridin-1-yl)-1-piperidyl]methyl]morpholin-4-yl]quinoline-8-carbonitrile]	–	> 20	> 10	>1924.5	>397.8	>121.4
C[C@@H]1CN(c2ccc(C#N)c3ncccc23)C[C@H](CN2CCC(n3cc4c(n3)CCNC4)CC2)O1 [Example 36, 5-[(2R,6S)-2-methyl-6-[[4-(4,5,6,7-tetrahydropyrazolo[4,3-c]pyridin-2-yl)-1-piperidyl]methyl]morpholin-4-yl]quinoline-8-carbonitrile]	–	> 20	10	566.6	246.7	180.7

The next lines start with results.

IC50 (TLR9) [nM]	Structure (SMILES)	IC50 (hERG channel) [µM]	IC20 (hERG channel) [µM]	hERG IC20/TLR7 IC50 (hERG channel)	hERG IC20/TLR8 IC50 (hERG channel)	hERG IC20/TLR9 IC50 (hERG channel)
346	C[C@@H]1CN(c2ccc(C#N)c3ncccc23)C[C@H](CN2CC(n3cc4c(n3)[C@H](C)CNC4)C2)O1 (single isomer, unassigned) [Example 25]	–	–	–	–	–
235	C[C@@H]1CN(c2ccc(C#N)c3ncccc23)C[C@H](CN2CC(n3ncc4c3[C@@H](C)NCC4)C2)O1 (single isomer, unassigned) [Example 31]	–	–	–	–	–
145	C[C@@H]1CN(c2ccc(C#N)c3ncccc23)C[C@H](CN2CC(n3ncc4c3[C@H](C)NCC4)C2)O1 (single isomer, unassigned) [Example 32]	–	–	–	–	–
202	C[C@@H]1CN(c2ccc(C#N)c3ncccc23)C[C@H](CN2CC(n3cc4c(n3)[C@H](C)NCC4)C2)O1 (single isomer, unassigned) [Example 34]	–	–	–	–	–
195	CCN1CCc2cn(C3CN(C[C@H]4CN(c5ccc(C#N)c6ncccc56)C[C@@H](C)O4)C3)nc2C1 [Example 7, 5-[(2S,6R)-2-[[3-(6-ethyl-5,7-dihydro-4H-pyrazolo[3,4-c]pyridin-2-yl)azetidin-1-yl]methyl]-6-methyl-morpholin-4-yl]quinoline-8-carbonitrile]	–	–	–	–	–
110	Cc1c2c(nn1C1CN(C[C@H]3CN(c4ccc(C#N)c5ncccc45)C[C@@H](C)O3)C1)CCN(C)C2 [Example 15, 5-[(2S,6R)-2-[[3-(3,5-dimethyl-6,7-dihydro-4H-pyrazolo[4,3-c]pyridin-2-yl)azetidin-1-yl]methyl]-6-methyl-morpholin-4-yl]quinoline-8-carbonitrile]	–	–	–	–	–
113	C[C@@H]1Cc2nn(C3CN(C[C@H]4CN(c5ccc(C#N)c6ncccc56)C[C@@H](C)O4)C3)cc2CN1 [Example 17, 5-[(2R,6S)-2-methyl-6-[[3-[(6R)-6-methyl-4,5,6,7-tetrahydropyrazolo[4,3-c]pyridin-2-yl]azetidin-1-yl]methyl]morpholin-4-yl]quinoline-8-carbonitrile]	–	–	–	–	–
97	C[C@@H]1CN(c2ccc(C#N)c3ncccc23)C[C@H](CN2CC(n3ncc4c3CCN[C@@H]4C)C2)O1 [Example 20, 5-[(2R,6S)-2-methyl-6-[[3-[(4R)-4-methyl-4,5,6,7-tetrahydropyrazolo[4,3-c]pyridin-1-yl]azetidin-1-yl]methyl]morpholin-4-yl]quinoline-8-carbonitrile]	–	–	–	–	–
92	C[C@@H]1CN(c2ccc(C#N)c3ncccc23)C[C@H](CN2CC(n3cc4c(n3)CCN[C@@H]4C)C2)O1 [Example 21, 5-[(2R,6S)-2-methyl-6-[[3-[(4R)-4-methyl-4,5,6,7-tetrahydropyrazolo[4,3-c]pyridin-2-yl]azetidin-1-yl]methyl]morpholin-4-yl]quinoline-8-carbonitrile]	–	–	–	–	–
